This is an account of results in patent publication US20020102280A1, “Solvent systems for pharmaceutical agents” (priority 2000, published 2002).

Read-outs that look alike come from different tables or passages of the source.

One series is described as follows: physchem. The text has this:
Approximately 0.17 gm of Epikuron 200, 0.7 gm essential oil of sweet basil, 0.25 gm of water, and 0.25 gm of glycerol were mixed and the mixture centrifuged.
In this experiment, essential oils of ginger and sweet basil were combined to solubilize the bioactive compound ubiquinone (a coenzyme Q10) in a phospholipid-rich reversed liquid crystal.

For series [1] the following is noted: cited from earlier work.
For series [2] the following is noted: cited from earlier work. This is another data set of the same source.
The conditions of series [3]: free base form; cited from earlier work.
The conditions of series [4]: oral, intramuscular and intraperitoneal routes; cited from earlier work.
For series [5] the following is noted: water-solubilized hydrochloride form; cited from earlier work.
Series [6] can be described thus: Solubilizing paclitaxel in essential oils.

On to `O=C1CN(/N=C/c2ccc(-c3ccc([N+](=O)[O-])cc3)o2)C(O)=N1` [Dantrolene sodium, dantrolene sodium], for which the “solubilization in reversed cubic phase” value in “physchem” was “free of dantrolene crystals”. For the same compound, the “dissolution in reversed cubic liquid crystalline phase” value in the series “physchem” (Experiment 10: 3 mg in Epikuron 200/ascorbyl palmitate/gentisic acid/aminocaproic acid/ethanolamine/water + oil of ginger) is on record as “dissolved”. The solubility in water in series [1] was around 300 µg/mL.

For `O=C1CN(/N=C/c2ccc(-c3ccc([N+](=O)[O-])cc3)o2)C(O)=N1` [Dantrolene, dantrolene], the solubility in water result in series [1] (listed as dantrolene) is on record as “approximately 150 mg/L”. The “solubility in simple phospholipid-water systems” value in series [2] was “very low”.

With `CCCCN1CCCCC1C(=O)Nc1c(C)cccc1C` (stereo not drawn) [bupivicaine], the “solubilization in liquid crystal (reversed cubic phase)” value in the series “physchem” is reported as “solubilized”. Besides, the “KOW (octanol-water partition coefficient)” value in series [3] was “approximately 1500”.

For the compound `C=CC(C)(O)CCC=C(C)C` (stereo not drawn) [Linalool, linalool], in series [4], the toxicity entry is “extremely low toxicity”.

Consider `CCCCN1CCCCC1C(=O)Nc1c(C)cccc1C.Cl` (stereo not drawn) [bupivicaine hydrochloride], for which the therapeutic half life result in series [5] is “only a few hours”.

As for `COC1=C(OC)C(=O)C(C/C=C(\C)CC/C=C(\C)CC/C=C(\C)CC/C=C(\C)CC/C=C(\C)CC/C=C(\C)CC/C=C(\C)CC/C=C(\C)CC/C=C(\C)CCC=C(C)C)=C(C)C1=O` [Coenzyme Q10, ubiquinone], in “physchem”, the “solubilization in reversed bicontinuous cubic phase” value is reported as “solubilized” and the “solubilization in reversed cubic phase” value is “fully solubilized”.

Broadly, the solubility is the concentration that dissolves in the medium under given conditions. `CC(=O)O[C@H]1C(=O)[C@@]2(C)[C@H]([C@H](OC(=O)c3ccccc3)[C@]3(O)C[C@H](OC(=O)[C@H](O)[C@@H](NC(=O)c4ccccc4)c4ccccc4)C(C)=C1C3(C)C)[C@]1(OC(C)=O)CO[C@@H]1C[C@@H]2O` [Paclitaxel, paclitaxel] registered a solubility in the series “physchem” (oil or lipid) of at least 5000 µg/mL. Moreover, the “Paclitaxel solubility (w/w, approx)” value is on record as around 16% in series [6] (in oil of bay); above 10% in series [6] (in palmarosa oil); above 5% in series [6] (in peppermint oil); around 7% in series [6] (in sweet basil oil); around 10% in series [6] (in thyme oil).

Take `N.[Cl][Pt][Cl].c1cscn1` [trans-[Pt(II)Cl2(NH3)(thiazole)]]: in the series “physchem”, the “level solubilized in reversed cubic phase” value is “about 2.4%”.
